Measured values reported in patent US12491176B2, “Methods, compositions, kits and uses thereof targeting and/or treating VRK2 to enhance effectiveness of immune checkpoint inhibitor(s)” (THE TRUSTEES OF COLUMBIA UNIVERSITY IN THE CITY OF NEW YORK, priority 2021, dated 2025).
Entries after “also recorded” stand apart in the source; their conditions may differ.

Columns and labels:
[1] = test system: MC38 tumor; test: MC38 syngeneic mouse tumor model, tumor growth; assay type: in vivo
From the text: (§1) One million MC38 or 4T1 cells were used for inoculation, implanted subcutaneously in the right hind flank of mice. Tumor growth was monitored using electronic calipers and calculated according to the formula: V=length×width^2×0.52. For T cell phenotypic analysis by flow cytometry, spleens and inguinal lymph nodes were harvested 17 days post-treatment initiation. Splenic and tdLN cells were stained with anti-mouse antibodies for flow cytometry analysis. To deplete T cells, mice received intraperitoneal injection of 200 μg anti-CD4 (BioXcell BE0003) and 200 μg anti-CD8 (BioXcell BE0061) antibodies in PBS, a second dose of the antibodies was administered two days later. […] Cell viability was measured with PrestoBlue (Invitrogen). […] Prexasertib was given S.C. at 10 mg/kg. All drugs were given for 12 days.
(§2) The MC38 syngeneic mouse tumor model was used to determine whether VRK2 inhibition alone or in combination with PD-1 blockade would improve anti-tumor immune response (see, e.g., FIG. 3A).
Utilizing an immunocompetent syngeneic model, C57BL/6 mice were injected with colon adenocarcinoma cell line MC38 and treated with kinase inhibitors as monotherapy or in combination with a mouse immune checkpoint blocking antibody (clone RMP1.14) for PD-1.

[2] = test system: T cells; test: Toxicity to T cells; assay type: cell-based
[3] = test system: PD-1 signaling; test: In vitro ability of PD-1 to inhibit cytokine secretion with IC-261; assay type: cell-based
Method: IL-2, IL-8, and IFN-γ concentrations in the supernatant were measured by enzyme linked immunosorbent assay (ELISA) from BioLegend.
IC-261 (AdooQ®: A15764), a small molecule specific inhibitor of VRK2 was used to evaluate the effect of VRK2 inhibition in tumor growth using mice MC38 syngenetic tumor model. This drug was also used in in vitro experiments where the ability of PD-1 to inhibit cytokine secretion was evaluated.

[4] = test system: 4T1 tumor; test: 4T1 mouse breast cancer tumor model in BALB/c mice, tumor growth; assay type: in vivo
From the text: as §1

[5] = test system: PAK2 S197 phosphorylation; test: Western blot of PAK2 S197 phosphorylation in Jurkat T cells following PD-1 ligation; assay type: cell-based, human
Method: To determine PAK phosphorylation, 5×10^6 Jurkat T cells were washed with cold PBS and resuspended in complete RPMI. The cells were stimulated for 5 minutes with Dynabeads at 37° C. as indicated above (beads/cells ratio of 3:1). The samples were treated with Calyculin A (CST 99025) at 100 nM for 25 minutes at 37° C., washed once with cold PBS and centrifugation at 500×g and lysed with RIPA buffer supplemented with PhosStop (Roche) for 1 hr at 4° C. Following 10 second sonication and centrifugation at 12,000×g for 10 minutes at 4° C., the samples were blotted using Phospho-PAK1 (Ser199/204)/PAK2 (Ser192/197) antibody (Cell Signaling). Blots were imaged and analyzed using Licor Odyssey.
Therefore, it was sought to validate the in silico predictions in Jurkat T cells with and without pharmacological VRK2 inhibition as well as in shRNA VRK2 knockdown Jurkat T cell line.

[6] = test system: T cells in tdLN and spleen; test: T cell phenotypic analysis by flow cytometry in tdLN and spleen of MC38 tumor mice; assay type: in vivo, mouse
From the text: as §1, §2

[7] = test system: mouse splenocytes; details: overnight treatment

Compound | inhibition of tumor growth ([1]; monotherapy, 5 mg/kg, MC38 in C57BL/6 mice) | toxicity to T cells [2] | effect on PD-1 signaling and function (ability of PD-1 to inhibit cytokine secretion) [3] | MC38 tumor volume compared to Prexasertib (LY2606368) and PF-477,736 ([1]; AZD-7762 25 mg/kg, PF 10 mg/kg, Prexasertib 10 mg/kg, 12 days) | tumor inhibition ([1]; AZD-7762 in combination treatment with anti-PD-1, MC38 in C57BL/6 mice) | tumor volume compared to vehicle or anti-PD-1 antibody treatment ([1]; AZD-7762 treatment alone, MC38) | anti-tumor activity after CD4+ and CD8+ T cell depletion ([1]; MC38 model, T cells depleted with anti-CD4 and anti-CD8 antibodies) | anti-tumor responses compared to PD-1 blockade alone or AZD-7762 treatment alone ([1]; combination of AZD-7762 with PD-1 blockade, MC38) | inhibited tumor growth ([1]; monotherapy, 25 mg/kg intraperitoneal (I.P.), MC38 in C57BL/6 mice) [%] | reduction in tumor growth ([4]; AZD-7762 alone, 4T1 in BALB/c mice (resistant to PD-1 monotherapy)) [%] | reduction in tumor growth, combination versus AZD-7762 alone ([4]; combination of AZD-7762 and anti-PD-1, 4T1 in BALB/c mice) | PAK2 S197 phosphorylation following PD-1 ligation [5] | proportion of CD8 T cells in tumor draining lymph nodes (tdLN) ([6]; combination of AZD-7762 with PD-1 blockade) | proportion of CD44+PD-1+ T cells in spleen and tdLN ([6]; combination therapy) | proportion of activated CD44+CD69+ CD4+ and CD8+ T cells in the tdLN ([6]; combination therapy) | LAG-3+ CD8+ T cells ([6]; combination therapy, tdLN) | cytotoxicity compared to two other CHK specific inhibitors [7]
COc1cc(OC)c(C=C2C(O)=Nc3ccccc32)c(OC)c1 [IC-261] | inhibition of tumor growth, like anti-PD-1 dosed as monotherapy | not toxic to T cells | interfere with PD-1 signaling and function | – | – | – | – | – | – | – | – | – | – | – | – | – | –
NC(=O)Nc1cc(-c2cccc(F)c2)sc1C(=O)N[C@H]1CCCNC1 [AZD-7762] | – | – | – | marked decrease in MC38 tumor volume | around 90% | significantly decreased tumor volume | fully reversed the anti-tumor activity; also recorded: impaired the efficacy | augmented anti-tumor responses | ~80 | ~30 | similar | fully inhibited | increased proportion of CD8 T cells | elevated proportion | significantly increased proportion | significantly increased | less cytotoxicity
